Measurements as given in PMC6694038, “Pharmacogenomic–pharmacokinetic study of selective estrogen-receptor modulators with intra-patient dose escalation in breast cancer” (Breast Cancer (Tokyo, Japan), 2019).
Read-outs that look alike come from different tables or passages of the source.

Text: Written informed consent was obtained from all the participants included in the study. The patient enrolment period for the screening study started on February 1, 2009 and ended on July 31, 2012.
We obtained data on compliance and the grade of hot flush as defined by the Common Terminology Criteria for Adverse Events v3.0.
The p value was not calculated if there were no events.

CN(C)CCOc1ccc(/C(=C(/CCCl)c2ccccc2)c2ccccc2)cc1 [TOR, toremifene]
Cre elevation All grade, % of patients (TOR 40 mg): 36.4%
Cre elevation All grade, patients (TOR 40 mg): 4
Cre elevation ≧ G2, % of patients (TOR 40 mg): 0 (0) %
Cre elevation ≧ G2, patients (TOR 40 mg): 0 (0)
GOT elevation All grade, % of patients (TOR 40 mg): 0 (0) %
GOT elevation All grade, patients (TOR 40 mg): 0 (0)
GOT elevation ≧ G2, % of patients (TOR 40 mg): 0 (0) %
GOT elevation ≧ G2, patients (TOR 40 mg): 0 (0)
GPT elevation All grade, % of patients (TOR 40 mg): 0 (0) %
GPT elevation All grade, patients (TOR 40 mg): 0 (0)
GPT elevation ≧ G2, % of patients (TOR 40 mg): 0 (0) %
GPT elevation ≧ G2, patients (TOR 40 mg): 0 (0)
Hot flush G0, % of patients (TOR 40 mg): 100%
Hot flush G0, patients (TOR 40 mg): 14
Hot flush G1, % of patients (TOR 40 mg): 0 (0) %
Hot flush G1, patients (TOR 40 mg): 0 (0)
Hot flush G2, % of patients (TOR 40 mg): 0 (0) %
Hot flush G2, patients (TOR 40 mg): 0 (0)
Hyperglycemia All grade, % of patients (TOR 40 mg): 0 (0) %
Hyperglycemia All grade, patients (TOR 40 mg): 0 (0)
Hyperglycemia ≧ G2, % of patients (TOR 40 mg): 0 (0) %
Hyperglycemia ≧ G2, patients (TOR 40 mg): 0 (0)
LDH elevation All grade, % of patients (TOR 40 mg): 0 (0) %
LDH elevation All grade, patients (TOR 40 mg): 0 (0)
LDH elevation ≧ G2, % of patients (TOR 40 mg): 0 (0) %
LDH elevation ≧ G2, patients (TOR 40 mg): 0 (0)
LDL elevation All grade, % of patients (TOR 40 mg): 0 (0) %
LDL elevation All grade, patients (TOR 40 mg): 0 (0)
LDL elevation ≧ G2, % of patients (TOR 40 mg): 0 (0) %
LDL elevation ≧ G2, patients (TOR 40 mg): 0 (0)
Low PLT All grade, % of patients (TOR 40 mg): 0 (0) %
Low PLT All grade, patients (TOR 40 mg): 0 (0)
Low PLT ≧ G2, % of patients (TOR 40 mg): 0 (0) %
Low PLT ≧ G2, patients (TOR 40 mg): 0 (0)
Low WBC All grade, % of patients (TOR 40 mg): 11.1%
Low WBC All grade, patients (TOR 40 mg): 1
Low WBC ≧ G2, % of patients (TOR 40 mg): 11.1%
Low WBC ≧ G2, patients (TOR 40 mg): 1
T. Bil elevation All grade, % of patients (TOR 40 mg): 0 (0) %
T. Bil elevation All grade, patients (TOR 40 mg): 0 (0)
T. Bil elevation ≧ G2, % of patients (TOR 40 mg): 0 (0) %
T. Bil elevation ≧ G2, patients (TOR 40 mg): 0 (0)
TG elevation All grade, % of patients (TOR 40 mg): 12.5%
TG elevation All grade, patients (TOR 40 mg): 1
TG elevation ≧ G2, % of patients (TOR 40 mg): 0 (0) %
TG elevation ≧ G2, patients (TOR 40 mg): 0 (0)
Weight, max (TOR 40 mg): 73.4 kg
Weight, mean (TOR 40 mg): 53.2 kg
Weight, median (TOR 40 mg): 51.7 kg
Weight, min (TOR 40 mg): 45.0 kg
Cre elevation All grade, % of patients (TOR 120 mg (1)): 27.3%
Cre elevation All grade, patients (TOR 120 mg (1)): 3
Cre elevation ≧ G2, % of patients (TOR 120 mg (1)): 0 (0) %
Cre elevation ≧ G2, patients (TOR 120 mg (1)): 0 (0)
GOT elevation All grade, % of patients (TOR 120 mg (1)): 16.7%
GOT elevation All grade, patients (TOR 120 mg (1)): 2
GOT elevation ≧ G2, % of patients (TOR 120 mg (1)): 8.3%
GOT elevation ≧ G2, patients (TOR 120 mg (1)): 1
GPT elevation All grade, % of patients (TOR 120 mg (1)): 8.3%
GPT elevation All grade, patients (TOR 120 mg (1)): 1
GPT elevation ≧ G2, % of patients (TOR 120 mg (1)): 8.3%
GPT elevation ≧ G2, patients (TOR 120 mg (1)): 1
Hot flush G0, % of patients (TOR 120 mg (1)): 69.2%
Hot flush G0, patients (TOR 120 mg (1)): 9
Hot flush G1, % of patients (TOR 120 mg (1)): 15.4%
Hot flush G1, patients (TOR 120 mg (1)): 2
Hot flush G2, % of patients (TOR 120 mg (1)): 15.4%
Hot flush G2, patients (TOR 120 mg (1)): 2
Hyperglycemia All grade, % of patients (TOR 120 mg (1)): 0 (0) %
Hyperglycemia All grade, patients (TOR 120 mg (1)): 0 (0)
Hyperglycemia ≧ G2, % of patients (TOR 120 mg (1)): 0 (0) %
Hyperglycemia ≧ G2, patients (TOR 120 mg (1)): 0 (0)
LDH elevation All grade, % of patients (TOR 120 mg (1)): 7.1%
LDH elevation All grade, patients (TOR 120 mg (1)): 1
LDH elevation ≧ G2, % of patients (TOR 120 mg (1)): 7.1%
LDH elevation ≧ G2, patients (TOR 120 mg (1)): 1
LDL elevation All grade, % of patients (TOR 120 mg (1)): 14.3%
LDL elevation All grade, patients (TOR 120 mg (1)): 1
LDL elevation ≧ G2, % of patients (TOR 120 mg (1)): 0 (0) %
LDL elevation ≧ G2, patients (TOR 120 mg (1)): 0 (0)
Low PLT All grade, % of patients (TOR 120 mg (1)): 0 (0) %
Low PLT All grade, patients (TOR 120 mg (1)): 0 (0)
Low PLT ≧ G2, % of patients (TOR 120 mg (1)): 0 (0) %
Low PLT ≧ G2, patients (TOR 120 mg (1)): 0 (0)
Low WBC All grade, % of patients (TOR 120 mg (1)): 11.1%
Low WBC All grade, patients (TOR 120 mg (1)): 1
Low WBC ≧ G2, % of patients (TOR 120 mg (1)): 11.1%
